In brackets after ≈: the same amount, converted by molar mass.
Columns and labels:
MCF-7 = experiment: MTT cytotoxicity assay, MCF-7 (1st panel); format: cell-based, human; details: for IC50: ± SD, MTT, 72 h; for selectivity index SI (MCF-7): IC50 normal cell line CCD39Lu/IC50 MCF-7
Protocol: (§1) Cell survival was measured as the percentage absorbance compared to the control (nontreated cells). […]
(§2) SI indexes were calculated from equation SI = IC50 normal cell line HDF/IC50 respective cancerous cell line (Table 2). A beneficial SI > 1.0 indicates a compound with efficacy against tumor cell greater than the toxicity against normal cells.
(§3) All experiments were carried out with human breast adenocarcinoma (MDA-MB-231 and MCF-7), hepatocellular carcinoma (HepG2), human cervical adenocarcinoma (HeLa) cancer cell lines, and human normal lung fibroblast (CCD39Lu) cell line. The cell line was purchased from the European Collection of Cells Cultures (ECACC, Salisbury, UK), and cultured in DMEM with phenol red supplemented with 10% (v/v) FBS, 1% (v/v) penicillin/streptomycin, and 1% (v/v) L-glutamine at 37 °C, in a humidified atmosphere containing 5% CO2.
(§4) The tested compounds were dissolved in DMSO to the final concentration 10 mM and stored […]
(§5) The cytotoxic effect of the tested compounds was determined by MTT assay. MDA-MB-231, MCF-7, HepG2, HeLa, and CCD39Lu cells were seeded in 96 wells plates at density 2x10^4 cells/well and incubated overnight under cell culture condition. Next, cells were treated with tested compounds at concentrations of 10 µM; 5 µM; 2.5 µM; 1.2 µM; 0.6 µM; 0.3 µM; 0.15 […]
(§6) µM. Moreover, GDM (for MCF-7) and 8 (for MCF-7 and MDA-MB-231) due to high cytotoxicity, were additionally tested at a lower concentration range of 2.5 µM; 1.2 µM; 0.6 µM; 0.3 µM; 0.15µM; 0.07 µM; 0.03 µM. DMSO was used as a control, and the concentration […]
(§7) Tested compounds were added to cells in the medium without phenol red. Cells were incubated 72 h at 37 °C in a humidified atmosphere containing 5% CO2.
(§8) Then, the medium was aspirated and MTT solution at a concentration of 0.59 mg/mL in cell culture medium was added to each well. Plates were incubated for 1.5 hours at 37 °C, and then plates were centrifuged for 3 minutes. The formazan crystals were dissolved in 200 µl DMSO and plates were agitated on a plate shaker at 300 –500 rpm for 10 minutes. Absorbance at 570 nm was measured using a plate reader (Biotek Instruments, Elx -800). Data were normalized to the mean absorption of control cells. All experiments were performed at least three times. […]

HDF = experiment: SRB cytotoxicity assay, human dermal fibroblasts HDF; format: cell-based; details: 72 h, ± SD, mixtures equimolar 1:1, read-out: IC50 HDF (toxicity in normal cells)
Protocol: (§9) Medium. Human Dermal Fibroblasts cell line (HDF) was cultured in Fibroblast Basal Medium.
(§10) Each medium was supplemented with 10% fetal bovine serum, 1% L-glutamine, and 1% penicillin/streptomycin solution. The cell lines were kept in the incubator at 37◦C. The optimal plating density of cell lines was determined to be 5 × 104. All the cell lines and mediums were obtained from American Type Culture Collection (ATCC) supplied by LGC-Standards. The protein-staining SRB (Sigma-Aldrich) microculture colorimetric assay, developed by the National Cancer Institute (USA) for in vitro antitumor screening was used in this study, to estimate the cell number by providing a sensitive index of total cellular protein content, being linear to cell density. The monolayer cell culture was trypsinized and the cell count was adjusted to 5 × 10^4 cells. To each well of the 96 well microtiter plate, 0.1 mL of the diluted cell suspension (approximately […]) was added. After 24 hours, when a partial monolayer was formed, the supernatant was washed out and 100 μL of six different compound concentrations (0.1, 0.2, 1, 2, 10, and 20 μM) were added to the cells in microtitre plates. The tested compounds were dissolved in DMSO (containing 10 % of water) (100 μL) and the […]
(§11) lines. The cells were exposed to compounds for 72 hours at 37 °C in a humidified atmosphere (90% RH) containing 5% CO2. After that, 25 μL of 50 % trichloroacetic acid was added to the wells and the plates were incubated for 1 hour at 4◦C. The plates were then washed out with the distilled water to remove traces of medium and next dried by the air. The air-dried plates were stained with 100 μL of 0.4% sulforhodamine B (prepared in 1 % acetic acid) and kept for 30 minutes at room temperature. The unbound dye was removed by rapidly washing with 1% […]
(§12) acetic acid and then air dried overnight. The protein-bound dye was dissolved in 100 μL of 10 mM unbuffered Tris base (pH 10.5) for optical density determination at 490 nm. All cytotoxicity experiments were performed three times. Cell survival was measured as the percentage absorbance compared to the control (nontreated cells). Cytarabine (ara-C) and GDM were used as the internal standards. Additionally biological assays were performed in Human Dermal Fibroblasts cell line (HDF) in aim to evaluate cytotoxicity of GDM and its 1-13 analogs in healthy cells. SI indexes were calculated from equation SI = IC50 normal cell line HDF/IC50 respective cancerous cell line (Table 2). A beneficial SI > 1.0 indicates a compound with efficacy against tumor cell greater than the toxicity against normal cells. […]

U-87 = experiment: SRB cytotoxicity assay, U-87 (2nd panel); format: cell-based, human; details: for IC50: Homo sapiens, U-87 MG, ± SD, SRB, 72 h; for selectivity index SIHDF (U-87): IC50 normal cell line HDF/IC50 U-87
Protocol: U-87MG cells (glioblastoma cell line) were cultured in Eagle’s Minimal Essential Medium. Human Dermal Fibroblasts cell line (HDF) was cultured in Fibroblast Basal Medium.
as §10, §11, §12

SKOV-3 = experiment: SRB cytotoxicity assay, SKOV-3 (2nd panel); format: cell-based, human; details: for IC50: Homo sapiens, SK-OV-3, ± SD, SRB, 72 h, mixtures equimolar 1:1; for selectivity index SIHDF (SKOV-3): IC50 normal cell line HDF/IC50 SKOV-3
Protocol: (§13) Human cancer cells SKBR-3 (human breast cancer cell line) and SKOV-3 (ovarian cancer cell line) were cultured in McCoy’s Modified Medium. […]
as §9, §10, §11, §12

CCD39Lu = experiment: MTT cytotoxicity assay, normal lung fibroblasts CCD39Lu; format: cell-based; details: Fibroblast, ± SD, healthy human lung fibroblasts, 72 h, read-out: IC50 CCD39Lu (toxicity in normal cells)
Protocol: as §1, §2, §3, §4, §5, §6, §7, §8

PC-3 = experiment: SRB cytotoxicity assay, PC-3 (2nd panel); format: cell-based, human; details: for IC50: Homo sapiens, PC-3, ± SD, SRB, 72 h, mixtures equimolar 1:1; for selectivity index SIHDF (PC-3): IC50 normal cell line HDF/IC50 PC-3
Protocol: as §9, §10, §11, §12

HepG2 = experiment: MTT cytotoxicity assay, HepG2 (1st panel); format: cell-based, human; details: for IC50: Homo sapiens, HepG2, ± SD, MTT, 72 h; for selectivity index SI (HepG2): IC50 normal cell line CCD39Lu/IC50 HepG2
Protocol: as §1, §2, §3, §4, §5, §6, §7, §8

HeLa = experiment: MTT cytotoxicity assay, HeLa (1st panel); format: cell-based, human; details: for IC50: Homo sapiens, HeLa, ± SD, MTT, 72 h; for selectivity index SI (HeLa): IC50 normal cell line CCD39Lu/IC50 HeLa
Protocol: as §1, §2, §3, §4, §5, §6, §7, §8

SKBR-3 = experiment: SRB cytotoxicity assay, SKBR-3 (2nd panel); format: cell-based, human; details: for IC50: Homo sapiens, SK-BR-3, ± SD, SRB, 72 h, mixtures equimolar 1:1; for selectivity index SIHDF (SKBR-3): IC50 normal cell line HDF/IC50 SKBR-3
Protocol: as §13, §9, §10, §11, §12

physchem = details: water, Solubility SH2O

Compound | IC50 (MCF-7; Homo sapiens, MCF7, 72 h) | selectivity index SI (MCF-7) (MCF-7) | IC50 (MCF-7) | CC50 (HDF) | IC50 (U-87) | selectivity index SIHDF (U-87) (U-87) | IC50 (SKOV-3) | selectivity index SIHDF (SKOV-3) (SKOV-3) | IC50 (CCD39Lu) | IC50 (PC-3) | selectivity index SIHDF (PC-3) (PC-3) | IC50 (HepG2) | selectivity index SI (HepG2) (HepG2) | IC50 (HeLa) | selectivity index SI (HeLa) (HeLa) | IC50 (SKBR-3) | selectivity index SIHDF (SKBR-3) (SKBR-3) | solubility (physchem)
CO[C@H]1/C=C\C=C(/C)C(=O)NC2=CC(=O)C(NC3CCC3)=C(C[C@@H](C)C[C@H](OC)[C@H](O)[C@@H](C)/C=C(\C)[C@@H]1OC(N)=O)C2=O [Compound 1] | ~0.1 µM | > 76.92 | 0.13 ± 0.01 µM | 30 µM | 7.32 ± 0.49 µM | 4.10 | 8.04 ± 0.24 µM | 3.73 | > 10 µM | 7.02 ± 0.06 µM | 4.28 | 1.75 ± 0.04 µM | > 5.71 | 1.67 ± 0.54 µM | > 5.99 | 7.44 ± 0.09 µM | 4.03 | 
CO[C@H]1/C=C\C=C(/C)C(=O)NC2=CC(=O)C(NC3CN4CCC3CC4)=C(C[C@@H](C)C[C@H](OC)[C@H](O)[C@@H](C)/C=C(\C)[C@@H]1OC(N)=O)C2=O (stereo partly drawn) [Compound 8] | ~0.1 µM | 9.67 | 0.09 ± 0.01 µM | 3.22 ± 0.18 µM | 1.08 ± 0.16 µM |  | 1.16 ± 0.92 µM | 2.78 | 0.87 ± 0.22 µM | 1.47 ± 0.31 µM | 2.19 | 1.25 ± 0.22 µM | 0.70 | 1.06 ± 0.26 µM | 0.82 | 1.49 ± 0.29 µM | 2.16 | 0.15 mg/mL (≈ 229 µM)
C=CC[N+]12CCC(CC1)C(NC1=C3C[C@@H](C)C[C@H](OC)[C@H](O)[C@@H](C)/C=C(\C)[C@H](OC(N)=O)[C@@H](OC)/C=C\C=C(/C)C(=O)NC(=CC1=O)C3=O)C2 (stereo partly drawn) [Compound 9] | 2.34 ± 0.56 µM | > 4.27 |  | ~5.29 µM | 3.69 ± 0.08 µM | 1.43 | 3.86 ± 0.05 µM | 1.37 | > 10 µM | 3.01 ± 0.11 µM | 1.76 | > 10 µM | > 1 | 9.25 ± 0.98 µM | > 1.08 | 3.12 ± 0.01 µM | 1.70 | 
CO[C@H]1/C=C\C=C(/C)C(=O)NC2=CC(=O)C(NC3C[N+]4(C/C=C/c5ccccc5)CCC3CC4)=C(C[C@@H](C)C[C@H](OC)[C@H](O)[C@@H](C)/C=C(\C)[C@@H]1OC(N)=O)C2=O (stereo partly drawn) [Compound 13] | 2.31 ± 0.97 µM | > 4.33 |  | ~3.81 µM | 2.26 ± 0.15 µM | 1.67 | 2.17 ± 0.06 µM | 1.76 | > 10 µM | 2.05 ± 0.09 µM | 1.86 | > 10 µM | > 1 | 8.14 ± 0.64 µM | > 1.23 | 2.02 ± 0.11 µM | 1.89 | > 5 mg/mL
C/C=C/C[N+]12CCC(CC1)C(NC1=C3C[C@@H](C)C[C@H](OC)[C@H](O)[C@@H](C)/C=C(\C)[C@H](OC(N)=O)[C@@H](OC)/C=C\C=C(/C)C(=O)NC(=CC1=O)C3=O)C2 (stereo partly drawn) [Compound 10] | 2.51 ± 1.03 µM | > 3.98 |  | 2.96 ± 0.36 µM | 1.84 ± 0.11 µM | 1.61 | 1.61 ± 0.13 µM | 1.84 | > 10 µM | 1.88 ± 0.02 µM | 1.57 | > 10 µM | > 1 | 7.43 ± 3.21 µM | > 1.35 | 1.94 ± 0.52 µM | 1.53 | > 5 mg/mL

Reference: article PMC8344233, “Anticancer activity and toxicity of new quaternary ammonium geldanamycin derivative salts and their mixtures with potentiators” (Journal of Enzyme Inhibition and Medicinal Chemistry, 2021)
